In patent publication US20120245159A1, “COMPOSITION AND METHOD FOR CONTROLLING ARTHROPOD PESTS” (SUMITOMO CHEMICAL COMPANY, LIMITED, priority 2009, published 2012):

How the values were obtained:
[1] = system: cotton aphid (Aphis gossypii); test: Test Example 3: pesticidal effect against cotton aphid by spray treatment (cucumber leaf disk, control value); type: in vivo; conditions: composition of the compound and clothianidin; spray over cucumber leaf disk, 25° C., 5 days; summary of Table 49
[2] = system: brown planthopper (Nilaparvata lugens); test: Test Example 4: pesticidal effect against brown planthopper by foliage spray treatment of rice (control value); type: in vivo; conditions: foliage spray of rice seedlings, third-instar larvae, after 5 days
[3] = composition of the compound and clothianidin, summary of Table 50
[4] = composition of the compound and dinotefuran, summary of Table 54
[5] = composition of the compound and imidacloprid, summary of Table 53
[6] = composition of the compound and nitenpyram, summary of Table 51
[7] = composition of the compound and thiamethoxam, summary of Table 52

CC(C)COc1cnccc1-c1nc2cc(C(F)(F)F)ccc2o1 [Compound 116, 2-(3-isobutoxypyridin-4-yl)-5-(trifluoromethyl)benzoxazole]
high pesticidal efficacy: pesticidal efficacy against cotton aphid (Aphis gossypii) [1] | pesticidal efficacy against brown planthopper (Nilaparvata lugens) [2, 3] | pesticidal efficacy against brown planthopper (Nilaparvata lugens) [2, 4] | pesticidal efficacy against brown planthopper (Nilaparvata lugens) [2, 5] | pesticidal efficacy against brown planthopper (Nilaparvata lugens) [2, 6] | pesticidal efficacy against brown planthopper (Nilaparvata lugens) [2, 7]

CC(C)(C)COc1cnccc1-c1nc2cc(C(F)(F)F)ccc2o1 [Compound 117, 2-[3-(2,2-dimethylpropoxy)pyridin-4-yl]-5-(trifluoromethyl)benzoxazole]
high pesticidal efficacy: pesticidal efficacy against cotton aphid (Aphis gossypii) [1] | pesticidal efficacy against brown planthopper (Nilaparvata lugens) [2, 3] | pesticidal efficacy against brown planthopper (Nilaparvata lugens) [2, 4] | pesticidal efficacy against brown planthopper (Nilaparvata lugens) [2, 5] | pesticidal efficacy against brown planthopper (Nilaparvata lugens) [2, 6] | pesticidal efficacy against brown planthopper (Nilaparvata lugens) [2, 7]

FC(F)(F)COc1cnccc1-c1nc2cc(C(F)(F)F)cnc2o1 [Compound 163]
high pesticidal efficacy: pesticidal efficacy against cotton aphid (Aphis gossypii) [1] | pesticidal efficacy against brown planthopper (Nilaparvata lugens) [2, 3] | pesticidal efficacy against brown planthopper (Nilaparvata lugens) [2, 4] | pesticidal efficacy against brown planthopper (Nilaparvata lugens) [2, 5] | pesticidal efficacy against brown planthopper (Nilaparvata lugens) [2, 6] | pesticidal efficacy against brown planthopper (Nilaparvata lugens) [2, 7]
